{"source": "patent US4988703A", "about": "“Carbocyclic nucleoside analogs with antiviral activity” (Abbott Laboratories, priority 1989, dated 1991)", "key": {"[1]": {"system": "Herpes simplex type 1 (HSV-1) strain E-377"}, "[2]": {"system": "Herpes simplex type 2 (HSV-2) strain MS"}, "[3]": {"system": "Herpes simplex type 1 (HSV-1) strain E-377", "experiment": "microbe, parasite or virus in culture", "conditions": "Human alphaherpesvirus 1, Vero, read-out: ID50: minimum drug concentration that inhibited the CPE by 50%"}, "[4]": {"system": "Herpes simplex type 2 (HSV-2) strain MS", "experiment": "microbe, parasite or virus in culture", "conditions": "Human alphaherpesvirus 2, Vero, read-out: ID50: minimum drug concentration that inhibited the CPE by 50%"}, "[5]": {"experiment": "Drug cytotoxicity in Vero host cells (cytotoxicity controls of the CPE-inhibition assay)", "conditions": "african green monkey, vero cells", "protocol": "(§1) The challenge viruses were propagated and assayed in cells that were pregrown as monolayer cultures in plastic tissue culture flasks and 96-well plates, using cell culture media appropriate for the host cell cultures. The following viruses and host cell cultures were employed:\n(§2) On the day of use, a weighed sample of each compound to be evaluated was dissolved and diluted in serial 10^0.5 dilutions in the culture medium appropriate for each virus-host cell system.\n(§3) Mammalian cells were pregrown as monolayers in wells of COSTAR 96-well tissue culture plates using suitable cell culture media. Stock viruses were pretitered according to the method of Reed and Muench (Amer. J. Hyg. 27:493-497, 1938) and diluted in cell culture medium to yield 32 CCID50 (cell culture infectious dose, 50%) units per 0.1 ml. Antiviral assays were designed to test seven concentrations of each compound, from cytotoxic to noncytotoxic levels, in triplicate against each of the challenge viruses in microtiter plate wells containing suitable cell monolayers. To each of the replicate cell cultures were added 0.1 ml of the test drug solution and 0.1 ml of virus suspension. Cell controls containing medium alone, virus controls containing medium and virus, and drug cytotoxicity controls containing medium and each drug concentration were run simultaneously with the test samples assayed in each experiment. […] The cell monolayers were examined microscopically for virus-induced CPE and for drug cytotoxicity.\n(§4) Antiviral activity was determined by calculating the degree of inhibition of virus-induced CPE in drug-treated, virus-infected cell cultures by means of a virus rating (VR). The VR is a standard weighted measurement of antiviral activity taking into account both the degree of CPE inhibition and drug cytotoxicity, and is determined by a modification of the method of Ehrlich et al. (Ann. N.Y. Acad. Sci. 130 : 5-16, 1965) as described below. CPE was graded for each individual culture in each microtiter plate well according to the following scale:\n(§5) ^3 MTC=The minimum drug concentration (ug/ml) causing any cytotoxicity."}, "[6]": {"system": "African green monkey kidney (Vero)", "experiment": "Drug cytotoxicity in Vero host cells (cytotoxicity controls of the CPE-inhibition assay)", "conditions": "Vero, HSV-2 (MS) experiment", "protocol": "as §1, §2, §3, §4, §5"}, "[7]": {"system": "Human influenza type A (IV-A) strain PR/8/34 (HINI)", "experiment": "CPE-inhibition assay against human influenza virus type A in MDCK cells", "format": "cell-based"}, "in vitro": {"experiment": "in vitro", "conditions": "dog, mdck", "protocol": "as §1, §2\nMammalian cells were pregrown as monolayers in wells of COSTAR 96-well tissue culture plates using suitable cell culture media. Stock viruses were pretitered according to the method of Reed and Muench (Amer. J. Hyg. 27:493-497, 1938) and diluted in cell culture medium to yield 32 CCID50 (cell culture infectious dose, 50%) units per 0.1 ml. Antiviral assays were designed to test seven concentrations of each compound, from cytotoxic to noncytotoxic levels, in triplicate against each of the challenge viruses in microtiter plate wells containing suitable cell monolayers. To each of the replicate cell cultures were added 0.1 ml of the test drug solution and 0.1 ml of virus suspension. […]\nAntiviral activity was determined by calculating the degree of inhibition of virus-induced CPE in drug-treated, virus-infected cell cultures by means of a virus rating (VR). […]"}}, "note": "Where two headings read alike, the source gives them in different places.", "data": [{"smiles": "Nc1nc2c(ncn2C2CC2CCO)c(=O)[nH]1", "note": "(stereo not drawn) [Example 2E, 9-[2-(2'-hydroxyethyl)cyclopropyl]guanine]", "values": [{"measurement": "TI (Therapeutic Index): minimum cytotoxic drug concentration divided by ID50", "setting": "[1]; HSV-1 E-377, Vero", "result": "> 10.4"}, {"measurement": "VR (Virus Rating)", "setting": "[1]; HSV-1 E-377, Vero, VR 1.0 definite activity, 0.5-0.9 marginal to moderate, <0.5 usually none", "result": 3.7}, {"measurement": "TI (Therapeutic Index): minimum cytotoxic drug concentration divided by ID50", "setting": "[2]; HSV-2 MS, Vero", "result": "> 4.1"}, {"measurement": "VR (Virus Rating)", "setting": "[2]; HSV-2 MS, Vero, VR 1.0 definite activity, 0.5-0.9 marginal to moderate, <0.5 usually none", "result": 2.3}, {"measurement": "IC50", "setting": "[3]", "result": 31.6, "unit": "µg/mL"}, {"measurement": "IC50", "setting": "[4]", "result": 77.7, "unit": "µg/mL"}, {"measurement": "MCC", "setting": "[5]", "result": "> 320", "unit": "µg/mL"}, {"measurement": "MTC: minimum drug concentration causing any cytotoxicity", "setting": "[6]", "result": "> 320", "unit": "µg/mL"}]}, {"smiles": "Nc1nc2c(ncn2C2CC2C(O)CO)c(=O)[nH]1", "note": "(stereo not drawn) [Example 3G]", "values": [{"measurement": "VR (Virus Rating)", "setting": "[7]", "result": 0.6}, {"measurement": "VR (Virus Rating)", "setting": "[1]", "result": 1.8}, {"measurement": "TI (Therapeutic Index): minimum cytotoxic drug concentration divided by ID50", "setting": "[1]; HSV-1 E-377, Vero", "result": 3.2}, {"measurement": "VR (Virus Rating)", "setting": "[2]", "result": 1.3}, {"measurement": "TI (Therapeutic Index): minimum cytotoxic drug concentration divided by ID50", "setting": "[2]; HSV-2 MS, Vero", "result": 2.0}, {"measurement": "MCC", "setting": "in vitro", "result": "> 320", "unit": "µg/mL"}, {"measurement": "IC50", "setting": "[3]", "result": 101, "unit": "µg/mL"}, {"measurement": "IC50", "setting": "[4]", "result": 159, "unit": "µg/mL"}, {"measurement": "MCC", "setting": "[5]", "result": "> 320", "unit": "µg/mL"}, {"measurement": "MTC: minimum drug concentration causing any cytotoxicity", "setting": "[6]", "result": "> 320", "unit": "µg/mL"}]}]}
